Assay results taken from patent US20260317370A1, “METHOD OF DEPROTECTING AT LEAST ONE D-AMINO ACID AND/OR D-AMINO ACID DERIVATIVE PROTECTED FUNCTIONAL GROUP” (Martin-Luther-Universität Halle-Wittenberg, priority 2023, published 2026).
Structures can show the parent of a compound that is named as a salt.

Assays:
Assay in all cases: additive influence on activity of D-stereospecific hydrolytic enzyme
Type in all cases: biochemical
Conditions in all cases: role: inhibitor (additive); substrate Abz-AAfFAAK(DNP)-OH
[1] = target: T1, D-stereospecific hydrolytic enzyme, SEQ ID No. 8 (Bacillus thuringiensis, UniProt A0A1W6WYC6)
T1 construct: E. coli, purified
T1 sequence (A0A1W6WYC6 40-389): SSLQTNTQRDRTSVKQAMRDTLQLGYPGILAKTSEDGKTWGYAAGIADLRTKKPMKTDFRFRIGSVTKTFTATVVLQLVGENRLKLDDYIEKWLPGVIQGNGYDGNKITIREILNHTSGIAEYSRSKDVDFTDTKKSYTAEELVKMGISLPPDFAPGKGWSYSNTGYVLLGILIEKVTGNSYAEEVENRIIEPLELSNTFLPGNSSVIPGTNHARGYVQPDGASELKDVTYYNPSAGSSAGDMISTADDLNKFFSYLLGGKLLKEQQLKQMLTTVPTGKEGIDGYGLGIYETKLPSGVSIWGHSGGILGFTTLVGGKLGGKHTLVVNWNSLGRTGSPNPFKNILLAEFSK
Protocol: (§1) In further experiments, the hydrolysis reaction using D-stereospecific hydrolytic enzymes with SEQ ID No. 4, No. 6, No. 7, No. 8, No. 9 was carried out with internally quenched fluorogenic substrates (IQFS) (Abz-AAX/xaaFAAK(DNP)-OH) (Abz=2-aminobenzoic acid, DNP=2,4-dinitrophenol). By cleavage of the IQFS, a fluorescence signal is released and can be monitored by continuous fluorescence measurement (0.1 M NaPi, pH 8.0, 1% DMSO (v/v), 5-1000 nM enzyme, excitation wavelength 320 nm emission wavelength 420 nm, reaction volume 100 μl, 96-well micro titer plate, time scale 2 h). The respective model reaction is shown below (Formula 5). In Formula 5 DHy represents the respective D-stereospecific hydrolytic enzyme.
(§2) In addition, experiments were performed to investigate the effect of adding different additives in different concentrations based on the reaction mixture on the activity of D-stereospecific hydrolytic enzymes. The concentration of the respective additive was varied between 0 to 2.5 M. As additives, urea, guanidinium hydrochloride, NaCl and ß-mercaptoethanol (ß-ME) were used. The additives were added to the reaction mixture including the D-stereospecific hydrolytic enzyme and the peptide Abz-AAfFAAK(DNP)-OH. As D-stereospecific hydrolytic enzymes the D-stereospecific hydrolytic enzymes with SEQ ID No. 4, No. 6, No. 7, No. 8 and No. 9 were used.
(§3) The relative activity, in this case, is calculated by dividing the activity when adding an additive with a different concentration by the maximum activity of the respective D-stereospecific enzyme.
(§4) In Table 11, the concentration of additive (M) based on the reaction mixture at which 50% (*) or 10% (**) of the relative specific activity of the respective enzyme is still present is indicated.

[2] = target: T2, D-stereospecific hydrolytic enzyme, SEQ ID No. 7 (Bacillus thuringiensis, UniProt A0A1W6WPK6)
T2 construct: E. coli, purified
T2 sequence (A0A1W6WPK6 41-389): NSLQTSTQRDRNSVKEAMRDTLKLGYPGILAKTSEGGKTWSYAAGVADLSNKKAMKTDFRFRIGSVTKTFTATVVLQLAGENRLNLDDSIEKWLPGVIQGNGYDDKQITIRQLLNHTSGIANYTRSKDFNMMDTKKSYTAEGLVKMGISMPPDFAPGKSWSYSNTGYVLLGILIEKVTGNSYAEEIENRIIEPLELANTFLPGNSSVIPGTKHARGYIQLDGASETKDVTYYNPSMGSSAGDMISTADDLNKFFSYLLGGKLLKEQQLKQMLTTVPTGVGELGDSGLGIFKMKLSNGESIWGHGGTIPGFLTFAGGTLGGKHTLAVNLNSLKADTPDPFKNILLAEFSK
Protocol: as §1, §2, §3, §4

[3] = target: T3, D-stereospecific hydrolytic enzyme, SEQ ID No. 4 (Bacillus cereus, UniProt P94288)
T3 construct: initiator Met form is 4A; E. coli, purified by ion exchange and gel filtration
Protocol: as §1, §2, §3, §4

[4] = target: T4, D-stereospecific hydrolytic enzyme, SEQ ID No. 9 (Bacillus thuringiensis, UniProt A0A1W6WP87)
T4 construct: E. coli, purified
T4 sequence (A0A1W6WP87 38-388): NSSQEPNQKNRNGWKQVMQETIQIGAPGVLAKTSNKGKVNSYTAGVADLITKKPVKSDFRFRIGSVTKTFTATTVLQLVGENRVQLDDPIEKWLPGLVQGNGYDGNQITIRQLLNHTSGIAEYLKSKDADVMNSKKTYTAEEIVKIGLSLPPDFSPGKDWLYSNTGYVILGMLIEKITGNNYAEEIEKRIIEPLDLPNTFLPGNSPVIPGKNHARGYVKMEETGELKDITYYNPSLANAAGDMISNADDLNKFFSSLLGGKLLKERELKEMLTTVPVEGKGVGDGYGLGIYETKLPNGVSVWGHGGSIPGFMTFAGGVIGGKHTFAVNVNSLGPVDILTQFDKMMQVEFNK
Protocol: as §1, §2, §3, §4

[5] = target: T5, D-stereospecific hydrolytic enzyme, SEQ ID No. 6 (Bacillus thuringiensis, UniProt A0A1W6WPG2)
T5 construct: E. coli, purified; crystallized, P21
T5 sequence (A0A1W6WPG2 40-385): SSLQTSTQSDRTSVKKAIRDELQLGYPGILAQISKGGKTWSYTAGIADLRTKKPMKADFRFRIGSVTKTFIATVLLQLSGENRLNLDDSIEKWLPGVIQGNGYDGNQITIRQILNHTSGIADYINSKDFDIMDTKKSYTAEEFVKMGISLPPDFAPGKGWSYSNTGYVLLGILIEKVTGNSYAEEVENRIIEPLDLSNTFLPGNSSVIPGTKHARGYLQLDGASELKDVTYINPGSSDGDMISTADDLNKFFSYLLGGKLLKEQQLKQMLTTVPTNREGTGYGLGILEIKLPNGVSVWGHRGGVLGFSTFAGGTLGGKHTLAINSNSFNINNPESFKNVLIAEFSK
Protocol: as §1, §2, §3, §4

T3 sequence (P94288 entry or part of it): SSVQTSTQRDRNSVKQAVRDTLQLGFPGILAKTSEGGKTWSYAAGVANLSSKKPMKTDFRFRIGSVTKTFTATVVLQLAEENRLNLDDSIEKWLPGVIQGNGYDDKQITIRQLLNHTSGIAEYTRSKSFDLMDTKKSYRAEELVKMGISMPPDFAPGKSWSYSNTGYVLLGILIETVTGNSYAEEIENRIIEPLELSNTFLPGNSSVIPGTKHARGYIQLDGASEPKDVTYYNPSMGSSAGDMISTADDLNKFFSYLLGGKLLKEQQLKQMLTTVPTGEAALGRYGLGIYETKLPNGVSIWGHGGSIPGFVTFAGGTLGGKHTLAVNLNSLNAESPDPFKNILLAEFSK

| Structure (SMILES) | concentration of additive at which 10% of the relative specific activity is still present [1] [M] | concentration of additive at which 10% of the relative specific activity is still present [2] [M] | concentration of additive at which 10% of the relative specific activity is still present [3] [M] | concentration of additive at which 10% of the relative specific activity is still present [4] [M] | concentration of additive at which 10% of the relative specific activity is still present [5] [M] |
| --- | --- | --- | --- | --- | --- |
| N=C(N)N [GdmCl, guanidinium hydrochloride] | 1.00 | 0.50 | 1.00 | 1.25 | 0.50 |
| NC(N)=O [urea] | 2.00 | 1.50 | 1.25 | 2.25 | 2.00 |
| OCCS [β-ME, ß-mercaptoethanol] | 0.50 | 0.50 | <0.25 | 0.50 | 0.50 |
